Source: US9701627B2, “LRRK2 GTP binding inhibitors for treatment of Parkinson's disease and neuroinflammatory disorders” (University of Maryland, Baltimore, priority 2014, dated 2017)

Tests used:
LRRK2 [1] = assay: LRRK2 GTP binding assay (GTP-agarose pull-down from lysates of transfected HEK293T cells); design: species or system human
Protocol: LRRK2 kinase assay was adapted from previous studies using autophosphorylation of cell lysates or brain homogenates. Briefly, HEK 293T were transiently transfected with various LRRK2 variants or kinase domain fragments for 36 h, followed by […] serum starvation for 12 h, and then treated with compound 70 and 68 for 1 h. The cells were harvested using lysis buffer (Cell Signaling). Mouse brains were homogenated using RIPA buffer (Cell Signaling). The resulting cell lysates or brain homogenates were immunoprecipitated using anti-Flag antibodies. The immunoprecipitates were subjected to Western blot using anti-phosphorylation LRRK2 antibodies at S935 and S2032 residues as described previously. In some cases, immunoprecipitates were incubated with kinase reaction buffer for 90 min at 30° C. containing 50 mM MgCl2, 500 μM ATP, and 10 μCi of [γ-^32P]ATP (3,000 Ci/mmol) followed by 4-12% SDS/PAGE separation and blotted onto PVDF membranes. Quantification was performed with a phosphoimager (Bio-Rad Molecular Imager FX). GTP binding assays were performed. […] The resulting beads were washed three times with cell lysis buffer, and bound protein was eluted by adding SDS-PAGE sample buffer and heating for 10 min at 72° C. Precipitates were subjected to Western blot analysis using anti-Flag antibodies.
GTP binding assays were performed using GTP-agarose beads (Sigma) as described previously. Lysates of HEK 293T cells expressing LRRK2 proteins were incubated with 68 or FX2149 at various concentrations for 1 h. The GTP-agarose beads were added for an additional 2 h. The samples were subjected to Western blot analysis using anti-Flag antibodies. LRRK2 kinase assays were performed using LRRK2 phosphorylation and in vitro ^32P incorporation methods as described previously.

[2] = tested on: SH-SY5Y cells expressing G2019S-LRRK2; assay: SH-SY5Y cell viability assay (G2019S-LRRK2-induced neuronal degeneration); type: cell-based, human
Protocol: Mouse primary cortical neurons were derived from CD-1 outbred mice (The Jackson Laboratory) at embryonic day 16 and cultured on 24 well plates coated with laminin- and poly-D-lysine-coated plates (BD Biosource, San Diego). Neurons were grown in neurobasal medium containing B-27 supplement, Glutamax, and penicillin/streptomycin. LRRK2 constructs were transfected into mouse primary cortical neurons using Lipofectamine 2000 (Invitrogen) according to the manufacturer's protocol. Cell viability assays were conducted. pcDNA3.1-GFP and FLAG-LRRK2 constructs at 1:15 ratio were cotransfected into SH-SY5Y cells (neurons) in 10% FBS OPTI-I media for 24 h. The media were changed to DMEM containing N2 supplement for 24 h. Cell viability was measured by counting GFP-positive viable cells (neurons) from 20 randomly selected fields using fluorescence microscopy. Viable cells (neurons) with one smooth extension (neurite) twice the length of the cell body were counted.
SH-SY5Y cell viability assays were conducted as described. […] Cell viability was measured by counting the healthy viable cells that contained at least one smooth extension (neurite) that was twice the length of the cell body from 20 randomly selected fields using fluorescence microscopy. […] The quantification for LRRK2 toxicity was performed by an investigator who was blind to transfection groups.

LRRK2 [3] = target: T1, LRRK2 (Mus musculus, UniProt Q5S006, G2019S); assay: brain LRRK2 phosphorylation (kinase activity) in G2019S-LRRK2-BAC transgenic mice; type: in vivo; settings: 10 mg/kg i.p., 1 h after injection
T1 construct: tissue Jackson Laboratory 012467; host or cells: brain homogenate of G2019S-LRRK2-BAC transgenic mice
T1 sequence (Q5S006 whole entry G2019S): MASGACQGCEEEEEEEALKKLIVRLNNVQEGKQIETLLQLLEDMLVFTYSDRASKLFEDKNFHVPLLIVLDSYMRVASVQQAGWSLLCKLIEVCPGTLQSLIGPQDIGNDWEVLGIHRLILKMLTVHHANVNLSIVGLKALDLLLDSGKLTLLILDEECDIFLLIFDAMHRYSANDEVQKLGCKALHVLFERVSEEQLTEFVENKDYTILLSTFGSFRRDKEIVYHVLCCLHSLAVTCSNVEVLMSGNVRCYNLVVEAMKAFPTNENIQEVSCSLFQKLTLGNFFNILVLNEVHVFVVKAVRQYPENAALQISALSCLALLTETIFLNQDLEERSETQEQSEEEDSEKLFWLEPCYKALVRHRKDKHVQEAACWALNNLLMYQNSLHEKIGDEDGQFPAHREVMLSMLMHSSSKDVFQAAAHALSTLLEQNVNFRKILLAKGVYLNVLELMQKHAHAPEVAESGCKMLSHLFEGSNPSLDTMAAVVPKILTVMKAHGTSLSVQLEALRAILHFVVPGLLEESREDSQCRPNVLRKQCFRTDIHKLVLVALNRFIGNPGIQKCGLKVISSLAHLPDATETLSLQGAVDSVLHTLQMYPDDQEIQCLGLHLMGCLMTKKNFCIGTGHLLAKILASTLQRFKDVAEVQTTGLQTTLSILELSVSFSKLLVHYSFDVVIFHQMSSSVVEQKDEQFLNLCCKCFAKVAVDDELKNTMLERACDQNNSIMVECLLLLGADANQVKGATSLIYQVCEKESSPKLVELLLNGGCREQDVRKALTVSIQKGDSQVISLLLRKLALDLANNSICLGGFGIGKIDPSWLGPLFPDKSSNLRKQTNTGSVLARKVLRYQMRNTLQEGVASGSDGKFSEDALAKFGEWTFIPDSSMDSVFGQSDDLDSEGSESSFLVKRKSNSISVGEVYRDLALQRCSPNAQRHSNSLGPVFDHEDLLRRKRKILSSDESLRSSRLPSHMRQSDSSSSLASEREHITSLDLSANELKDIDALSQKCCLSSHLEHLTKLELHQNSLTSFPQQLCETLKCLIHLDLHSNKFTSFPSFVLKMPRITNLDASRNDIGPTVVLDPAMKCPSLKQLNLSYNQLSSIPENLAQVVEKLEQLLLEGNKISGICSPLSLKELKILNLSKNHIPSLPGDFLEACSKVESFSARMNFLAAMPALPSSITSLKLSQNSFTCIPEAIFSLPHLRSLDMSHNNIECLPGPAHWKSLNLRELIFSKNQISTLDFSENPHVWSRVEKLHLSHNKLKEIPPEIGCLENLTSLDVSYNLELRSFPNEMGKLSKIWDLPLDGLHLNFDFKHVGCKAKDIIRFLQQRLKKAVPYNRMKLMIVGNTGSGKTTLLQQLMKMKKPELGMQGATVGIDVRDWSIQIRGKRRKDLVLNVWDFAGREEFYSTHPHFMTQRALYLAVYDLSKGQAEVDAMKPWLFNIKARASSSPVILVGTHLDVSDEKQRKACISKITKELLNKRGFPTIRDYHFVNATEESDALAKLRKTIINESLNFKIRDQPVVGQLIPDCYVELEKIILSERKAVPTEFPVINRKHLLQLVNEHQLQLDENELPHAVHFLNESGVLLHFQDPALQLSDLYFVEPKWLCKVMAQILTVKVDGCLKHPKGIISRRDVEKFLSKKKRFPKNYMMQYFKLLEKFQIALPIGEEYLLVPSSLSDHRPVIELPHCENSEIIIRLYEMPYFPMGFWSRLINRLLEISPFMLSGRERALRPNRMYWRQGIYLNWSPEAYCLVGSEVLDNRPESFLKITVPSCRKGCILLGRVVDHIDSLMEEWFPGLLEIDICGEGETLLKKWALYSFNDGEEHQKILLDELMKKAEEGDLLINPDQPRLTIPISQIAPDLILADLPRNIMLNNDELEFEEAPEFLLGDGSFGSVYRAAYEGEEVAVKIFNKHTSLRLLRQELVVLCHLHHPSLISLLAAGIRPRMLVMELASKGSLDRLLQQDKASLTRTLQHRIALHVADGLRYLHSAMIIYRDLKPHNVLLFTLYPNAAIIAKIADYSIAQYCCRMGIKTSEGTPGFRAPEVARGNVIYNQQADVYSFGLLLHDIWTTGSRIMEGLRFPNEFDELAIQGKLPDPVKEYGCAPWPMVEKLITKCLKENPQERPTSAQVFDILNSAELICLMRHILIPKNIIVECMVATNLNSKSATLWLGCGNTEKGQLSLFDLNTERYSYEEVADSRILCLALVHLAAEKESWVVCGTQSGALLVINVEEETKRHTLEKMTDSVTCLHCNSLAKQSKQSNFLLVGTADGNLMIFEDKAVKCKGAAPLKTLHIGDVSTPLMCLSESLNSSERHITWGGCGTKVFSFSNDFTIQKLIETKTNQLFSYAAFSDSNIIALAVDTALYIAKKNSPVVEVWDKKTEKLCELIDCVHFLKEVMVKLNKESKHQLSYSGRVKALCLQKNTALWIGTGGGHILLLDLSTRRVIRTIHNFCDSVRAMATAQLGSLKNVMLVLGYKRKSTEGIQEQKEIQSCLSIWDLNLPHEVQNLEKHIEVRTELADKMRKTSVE
Protocol: (§1) To assess whether 70 and 68 alter LRRK2 activities in vivo, G2019S-LRRK2-BAC transgenic mice were used. […] Only the effects of 68 on LRRK2 functions were tested in vivo using G2019S-LRRK2-BAC transgenic mice. Vehicle or 68 at 10 and 20 mg/kg was injected intraperitoneally for one hour. Mouse brain homogenates were subjected to LRRK2 autophosphorylation and GTP binding assays.
LRRK2 kinase assay was adapted from previous studies using autophosphorylation of cell lysates or brain homogenates. Briefly, HEK 293T were transiently transfected with various LRRK2 variants or kinase domain fragments for 36 h, followed by no serum starvation for 12 h, and then treated with compound 70 and 68 for 1 h. The cells were harvested using lysis buffer (Cell Signaling). Mouse brains were homogenated using RIPA buffer (Cell Signaling). The resulting cell lysates or brain homogenates were immunoprecipitated using anti-Flag antibodies. […] Quantification was performed with a phosphoimager (Bio-Rad Molecular Imager FX). […]
To assess the effects of FX2149 on LRRK2 in brains compared with 68, both 68 and FX2149 were injected intraperitoneally into G2019S-BAC-LRRK2 transgenic mice at 10 and 20 mg/kg doses. […] To further confirm the effect of FX2149, we also assessed a LRRK2 downstream effector, 4E-BP phosphorylation. […]

[4] = tested on: SH-SY5Y cells expressing mutant G2019S-LRRK2; assay: TUNEL assay in SH-SY5Y cells expressing mutant LRRK2; type: cell-based, human; settings: 100 nM
Protocol: Expression of mutant G2019S-LRRK2 led to neuronal degeneration in both SH-SY5Y and mouse primary cortical neurons as assessed by cell viability and DNA fragmentation (TUNEL) assays as previously described. […] To further confirm these findings, mouse primary cortical neurons were used to assess the effects of 70 and 68. Treatment of 70 (2 and 5 nM) and 68 (5 and 10 nM) protected against mutant LRRK2-induced neuronal degeneration (FIG. 15, panels (a) and (c)). Moreover, 70 and 68 both decreased the TUNEL-positive SH-SY5Y cells expressing mutant LRRK2 (FIG. 15, panel (d)).
SH-SY5Y cell viability assays were conducted as described. Cells were co-transfected with GFP and various pcDNA3.1-LRRK2 plasmids at a 1:15 ratio for 24 h in 10% FBS OPTI-I media and then changed to DMEM with N2 supplement for 24 h. Compounds were added after 4-h transfection. Cell viability was measured by counting the healthy viable cells that contained at least one smooth extension (neurite) that was twice the length of the cell body from 20 randomly selected fields using fluorescence microscopy. TUNEL assays were performed according to the manufacturer's instructions as described previously. The experiments were repeated three times in duplicate. The quantification for LRRK2 toxicity was performed by an investigator who was blind to transfection groups.

LRRK2 [5] = target: T1, LRRK2; assay: brain LRRK2 GTP binding in G2019S-LRRK2-BAC transgenic mice; type: in vivo
Protocol: as §1
LRRK2 kinase assay was adapted from previous studies using autophosphorylation of cell lysates or brain homogenates. Briefly, HEK 293T were transiently transfected with various LRRK2 variants or kinase domain fragments for 36 h, followed by […] serum starvation for 12 h, and then treated with compound 70 and 68 for 1 h. The cells were harvested using lysis buffer (Cell Signaling). Mouse brains were homogenated using RIPA buffer (Cell Signaling). The resulting cell lysates or brain homogenates were immunoprecipitated using anti-Flag antibodies. The immunoprecipitates were subjected to Western blot using anti-phosphorylation LRRK2 antibodies at S935 and S2032 residues as described previously. In some cases, immunoprecipitates were incubated with kinase reaction buffer for 90 min at 30° C. containing 50 mM MgCl2, 500 μM ATP, and 10 μCi of [γ-^32P]ATP (3,000 Ci/mmol) followed by 4-12% SDS/PAGE separation and blotted onto PVDF membranes. Quantification was performed with a phosphoimager (Bio-Rad Molecular Imager FX). GTP binding assays were performed. Cell lysates or brain homogenates (100 μg protein/per reaction) were incubated with vehicle or compounds at 1-50 μM concentration for 1 h followed by addition of GTP-agarose beads (Sigma) for an additional 2 h at 4° C. The resulting beads were washed three times with cell lysis buffer, and bound protein was eluted by adding SDS-PAGE sample buffer and heating for 10 min at 72° C. Precipitates were subjected to Western blot analysis using anti-Flag antibodies.
To assess the effects of FX2149 on LRRK2 in brains compared with 68, both 68 and FX2149 were injected intraperitoneally into G2019S-BAC-LRRK2 transgenic mice at 10 and 20 mg/kg doses. One hour after the injection, the mouse brain homogenates were subjected to LRRK2 GTP binding and kinase assays. Both 68 (20 mg/kg) and FX2149 (10 mg/kg) reduced LRRK2 GTP binding activity in mouse brains (FIGS. 32 and 33). […] To further confirm the effect of FX2149, we also assessed a LRRK2 downstream effector, 4E-BP phosphorylation. 4E-BP is a […] that can be phosphorylated by LRRK2. […] FX2149 at a 10 mg/kg dose reduced 4E-BP up to 15% of the untreated control group, while 68 at a 20 mg/kg dose reduced 4E-BP up to 15% of the untreated control group.

[6] = tested on: LPS-induced microglia activation and LRRK2 upregulation; assay: LPS-based mouse neuroinflammation model, immunohistochemistry of substantia nigra; type: in vivo
Protocol: G2019S-LRRK2-BAC (Jackson, Lab. Cat: 012467) transgenic mice were food deprived for 4 h before surgery. There were 4 to 6 mice in each experimental group. Mice were anesthetized with isoflurane. LPS ([…] containing 15,000 endotoxin units, Sigma) was injected into the substantia nigra pars compacta unilaterally with a 1 μl volume at 0.2 μl/min flow rate as described previously. The stereotaxic coordinates were −3.4 anteroposterior (AP), −1.1 ML, and −3.9 DV with respect to bregma. After injection, the needle was kept in place for 5 min before withdrawal to avoid LPS leakage up the cannula track. […] Then 68 was injected twice daily for three days. The mice were perfused with 4% paraformaldehyde (PFA) in PBS and the brains were dissected and frozen in isopentane and stored in a −80° C. freezer for immunostaining Animal usage was approved by the University of Maryland School of Pharmacy.
Mice were perfused with saline and 4% paraformaldehyde. Frozen mouse brains were sectioned through the substantia nigra at 30 μm and the sections were subjected to immunohistochemical analysis as described previously. Briefly, frozen sections were placed in 0.6% H2O2 in methanol for 10 min followed by 5% normal goat serum (Sigma) to block non-specific reactions. Sections were then sequentially incubated with primary antibodies and biotinylated anti-rabbit secondary antibodies (Vector Laboratories) and avidin-biotin-peroxidase complex (ABC Elite kit, Vector Laboratories). Anti-LRRK2 (MJFF), anti-phosphorylated LRRK2 S935 (MJFF), and anti-isolectin antibodies were used as primary antibodies. Isolectin-B4:FITC or Isolectin-B4:Biotin were from Sigma. Some tissue sections were visualized by peroxidase reaction using diaminobenzidine (DAB, Sigma). Some tissue sections were probed with Alexa Fluor 488 goat anti-mouse (rabbit) IgG and Alexa Fluor 568 goat anti-mouse (rabbit) IgG (Invitrogen) as secondary antibodies. The specificity of the immunostaining was checked by incubating adjacent sections with each preabsorbed primary antibody. […] The density of red and green fluorescence in the 6 consecutive sections crossing the LPS injection site of each mouse was quantified using NIH image-J software. Six microscope field images (20×) from one brain section were subjected to fluorescence density quantification. […]
G2019S-LRRK2-BAC transgenic mice were anesthetized with isoflurane and injected with LPS (15,000 endotoxin units, 5 μg, Sigma) for each mouse in the substantia nigra pars compacta (SN) unilaterally as described previously. […] Some sections were added with anti-rabbit (mouse) biotinylated secondary antibody and avidin-biotin-peroxidase complex (Vector Laboratories), and detected by diaminobenzidine (DAB, Sigma). […]

G2019S-LRRK2 = target: T2, G2019S-LRRK2 (Homo sapiens, UniProt Q5S007, G2019S); assay: LRRK2 phosphorylation (kinase) assay in HEK293T cells expressing G2019S-LRRK2; type: cell-based; settings: 100 nM, 1 h
T2 construct: expressed in transfected cells; host or cells: HEK293T
T2 sequence (Q5S007 whole entry G2019S): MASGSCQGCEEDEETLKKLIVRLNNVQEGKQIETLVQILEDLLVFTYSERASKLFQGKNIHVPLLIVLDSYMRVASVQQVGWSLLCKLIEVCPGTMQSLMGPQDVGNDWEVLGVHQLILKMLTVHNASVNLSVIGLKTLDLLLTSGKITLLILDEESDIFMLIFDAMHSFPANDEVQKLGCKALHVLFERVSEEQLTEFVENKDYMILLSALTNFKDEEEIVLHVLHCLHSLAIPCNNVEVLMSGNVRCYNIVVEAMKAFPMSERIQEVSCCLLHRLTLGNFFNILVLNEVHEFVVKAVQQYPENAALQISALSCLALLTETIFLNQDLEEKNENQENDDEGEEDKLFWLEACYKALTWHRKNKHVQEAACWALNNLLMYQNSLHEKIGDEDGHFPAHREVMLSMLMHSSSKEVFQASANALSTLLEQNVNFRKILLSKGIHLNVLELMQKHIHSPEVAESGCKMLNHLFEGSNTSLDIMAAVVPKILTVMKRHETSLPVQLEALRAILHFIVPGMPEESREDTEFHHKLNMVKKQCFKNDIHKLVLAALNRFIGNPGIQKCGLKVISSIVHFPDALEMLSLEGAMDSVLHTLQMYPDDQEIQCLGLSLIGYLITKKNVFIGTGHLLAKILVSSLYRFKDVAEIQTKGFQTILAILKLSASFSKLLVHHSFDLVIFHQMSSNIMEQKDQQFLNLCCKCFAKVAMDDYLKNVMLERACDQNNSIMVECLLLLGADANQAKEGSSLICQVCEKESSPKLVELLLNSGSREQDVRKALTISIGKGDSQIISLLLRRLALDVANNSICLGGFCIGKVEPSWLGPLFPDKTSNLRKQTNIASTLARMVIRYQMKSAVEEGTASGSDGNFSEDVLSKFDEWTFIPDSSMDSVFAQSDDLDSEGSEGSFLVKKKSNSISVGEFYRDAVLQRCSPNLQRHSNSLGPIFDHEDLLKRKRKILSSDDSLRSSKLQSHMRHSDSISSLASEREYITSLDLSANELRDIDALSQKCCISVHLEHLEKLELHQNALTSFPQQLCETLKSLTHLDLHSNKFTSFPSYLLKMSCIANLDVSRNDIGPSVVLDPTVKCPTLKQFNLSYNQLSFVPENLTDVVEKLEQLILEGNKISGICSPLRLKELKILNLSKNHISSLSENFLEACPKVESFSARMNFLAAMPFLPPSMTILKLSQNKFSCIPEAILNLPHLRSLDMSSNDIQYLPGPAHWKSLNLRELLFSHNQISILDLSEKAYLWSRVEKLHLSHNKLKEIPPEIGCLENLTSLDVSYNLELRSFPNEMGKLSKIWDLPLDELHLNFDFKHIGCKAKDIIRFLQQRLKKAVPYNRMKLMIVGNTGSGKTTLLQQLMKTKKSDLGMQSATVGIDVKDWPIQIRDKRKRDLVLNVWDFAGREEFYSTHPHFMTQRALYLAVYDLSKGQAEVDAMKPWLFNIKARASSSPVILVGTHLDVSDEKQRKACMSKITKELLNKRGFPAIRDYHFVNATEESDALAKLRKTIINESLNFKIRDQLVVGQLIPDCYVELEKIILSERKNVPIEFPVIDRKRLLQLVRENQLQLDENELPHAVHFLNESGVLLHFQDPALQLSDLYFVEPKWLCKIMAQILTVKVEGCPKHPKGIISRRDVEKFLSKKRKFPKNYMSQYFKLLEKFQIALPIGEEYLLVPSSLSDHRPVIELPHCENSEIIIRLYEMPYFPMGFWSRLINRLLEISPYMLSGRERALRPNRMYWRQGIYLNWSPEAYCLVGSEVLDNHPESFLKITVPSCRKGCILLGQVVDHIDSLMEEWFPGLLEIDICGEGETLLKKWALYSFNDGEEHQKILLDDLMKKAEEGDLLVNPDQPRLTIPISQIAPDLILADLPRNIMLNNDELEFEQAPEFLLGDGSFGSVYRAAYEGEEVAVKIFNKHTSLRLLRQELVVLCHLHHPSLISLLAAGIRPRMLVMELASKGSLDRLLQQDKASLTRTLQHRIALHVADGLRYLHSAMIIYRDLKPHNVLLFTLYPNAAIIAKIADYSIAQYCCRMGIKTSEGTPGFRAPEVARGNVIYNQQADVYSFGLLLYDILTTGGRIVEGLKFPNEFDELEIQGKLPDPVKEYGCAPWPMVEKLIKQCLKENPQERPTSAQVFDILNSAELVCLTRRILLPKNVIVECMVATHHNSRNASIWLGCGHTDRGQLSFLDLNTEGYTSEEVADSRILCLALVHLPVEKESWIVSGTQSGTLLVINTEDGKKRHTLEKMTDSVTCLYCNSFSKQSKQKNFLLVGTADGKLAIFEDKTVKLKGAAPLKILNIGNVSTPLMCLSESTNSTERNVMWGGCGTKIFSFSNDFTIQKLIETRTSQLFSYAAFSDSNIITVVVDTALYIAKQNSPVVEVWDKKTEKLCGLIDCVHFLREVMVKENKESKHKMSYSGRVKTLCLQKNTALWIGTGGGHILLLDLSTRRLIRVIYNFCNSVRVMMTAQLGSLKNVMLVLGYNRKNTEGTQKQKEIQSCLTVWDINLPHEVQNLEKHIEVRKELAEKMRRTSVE
Protocol: LRRK2 kinase assay was adapted from previous studies using autophosphorylation of cell lysates or brain homogenates. Briefly, HEK 293T were transiently transfected with various LRRK2 variants or kinase domain fragments for 36 h, followed by no serum starvation for 12 h, and then treated with compound 70 and 68 for 1 h. The cells were harvested using lysis buffer (Cell Signaling). Mouse brains were homogenated using RIPA buffer (Cell Signaling). The resulting cell lysates or brain homogenates were immunoprecipitated using anti-Flag antibodies. The immunoprecipitates were subjected to Western blot using anti-phosphorylation LRRK2 antibodies at S935 and S2032 residues as described previously. In some cases, immunoprecipitates were incubated with kinase reaction buffer for 90 min at 30° C. containing 50 mM MgCl2, 500 μM ATP, and 10 μCi of [γ-^32P]ATP (3,000 Ci/mmol) followed by 4-12% SDS/PAGE separation and blotted onto PVDF membranes. Quantification was performed with a phosphoimager (Bio-Rad Molecular Imager FX). GTP binding assays were performed. […]
For LRRK2 phosphorylation assays, HEK293T cells were transfected with various LRRK2 variants for 36 h, then were incubated in media without serum for 12 hours. […] The LRRK2 autophosphorylation with ^32P incorporation was separated by SDS/PAGE gel and quantified with a phosphoimager (Bio-Rad Molecular Imager).

Row | Compound | effect on wild type and PD-linked mutant LRRK2 GTP-binding activity (LRRK2 [1]; 10 μM) | protection against mutant LRRK2-induced neurodegeneration ([2]; 50-200 nM) | viability of cells expressing G2019S-LRRK2 compared with vehicle treated cells ([2]; treated for 48 hours) | reduction of LRRK2 GTP binding activity (LRRK2 [1]; 10 nM) [%] | effect on LRRK2 binding with GTP (LRRK2 [1]; 1 and 10 nM) | effect on mutant LRRK2 variants (G2019S and R1441C) bound with GTP (LRRK2 [1]; 1 and 10 nM) | effect on brain LRRK2 kinase activity (LRRK2 [3]) | TUNEL-positive cells expressing mutant G2019S-LRRK2 [4] | effect on brain LRRK2 GTP binding activity (LRRK2 [5]; 10 mg/kg i.p., 1 h after injection) | brain (BBB) penetration inferred from brain LRRK2 GTP binding and kinase inhibition (LRRK2 [5]; after i.p. injection) | improvement of in vivo efficacy over 68 (LRRK2 [5]; mouse, in vivo) | reduction of LPS-induced microglia activation compared with vehicle treated LPS mice ([6]; 10 mg/kg) [%] | LPS-induced LRRK2-positive immunostaining compared with vehicle controls ([6]; 10 mg/kg i.p.) | anti-phosphorylated-LRRK2 immunoactivity ([6]; 10 mg/kg i.p.) | isolectin B4 immunoactivity compared with the LPS alone treated group ([6]; 10 mg/kg i.p., twice daily for three days) [%] | reduction of G2019S-LRRK2 kinase activity (phosphorylation at S935 and S2032) (G2019S-LRRK2) [%]
1 | O=C1Nc2ccc(I)cc2/C1=C/c1cc(Br)c(O)c(Br)c1 [GW5074, reference compound] | did not alter | – | – | – | – | – | – | – | – | – | – | – | – | – | – | –
2 | CCCNC(=O)c1cccc(NS(=O)(=O)c2cccnc2)c1 [FX2149, N-propyl-3-(pyridine-3-sulfonamido)benzamide] | – | protected | significantly increased | ~90 | significantly reduced | reduced | significantly reduced | significantly reduced | reduced | taken up into brains at a greater extent | more than 2 fold | 57 | significantly reduced | significantly reduced | ~43 | ~90
